In PMC6030077, “Dual role of HDAC10 in lysosomal exocytosis and DNA repair promotes neuroblastoma chemoresistance” (Scientific Reports, 2018):

Experiments:
Type in all cases: cell-based, human
HDAC6 = assay: Western blot analysis of tubulin K40 acetylation as a marker for HDAC6 inhibition; details: 24 h; bufexamac 30 µM, tubastatin A 7.5 µM, tubacin 7.5 µM
Procedure: Western blot analysis was performed as previously described. The following antibodies were used: anti-HDAC6 (sc-11420, Santa Cruz), anti-HDAC10 (H3413, Sigma), anti-acetylated histone H3 (06-911, Merck Millipore), anti-histone H3 (9715, Cell Signaling Technology, Cambridge UK), anti-LAMP-1 (H4A3, DHSB, Iowa City, IA, USA), anti-LAMP-2 (H4B4; Santa Cruz Biotechnology), anti-acetylated tubulin (6–11B-1; Sigma), anti-tubulin (2148, Cell Signaling Technology), anti P-glycoprotein (13978 S, Cell Signaling Technology) and anti-β-actin (clone AC-15; Sigma).

BE(2)-C cells [1] = assay: Pulse-chase analysis of doxorubicin secretion/retention; details: 12 h pre-treatment, 1 µg/ml doxorubicin 3 h, washout, relative to t0
Procedure: To test whether HDAC10 inhibition prolonged the retention of doxorubicin, we used a pulse-chase approach in which BE(2)-C cells were pre-treated over night with HDAC6/10 inhibitors and then loaded with high concentrations of doxorubicin for 3 h (1 µg/ml). After doxorubicin washout, HDAC6/10 or HDAC6 inhibitors were re-added (t0), and intracellular doxorubicin fluorescence was measured at t0, as well as 3 h (t3h) and 6 h (t6h) after doxorubicin removal (Fig. 5h–k). […] In summary, secretion of doxorubicin was slowed down in case of HDAC6/10 inhibition but not by specific HDAC6 inhibition alone.
(§1) For flow cytometric quantification of intracellular doxorubicin after HDAC6/10 inhibition, BE(2)-C, SK-N-AS, IMR-32, HAP1 wild type and HDAC10 knockout cells were seeded in 6-well dishes at a density of 1.5 ∗ 10^5 cells/well (BE(2)-C and SK-N-AS, HAP1) and 3 ∗ 10^5 cells/well (IMR-32). Cells were treated with 25 ng/ml, 50 ng/ml, 100 ng/ml or 1 µg/ml doxorubicin, respectively, for 3–48 h (see respective figure legend). Where indicated, cells were co-treated with HDAC6/10 or lysosomal inhibitors. In case of co-treatment with vacuolin-1, vacuolin-1 was directly added to cells under doxorubicin treatment 1 h or 24 h prior to analysis. Flow cytometric quantification of intracellular doxorubicin after HDAC6, HDAC10 or P-glycoprotein knockdown in BE(2)-C cells was performed 5 days (P-glycoprotein) or 6 days (HDAC6/10) after transfection with siRNA. To that end, cells were seeded 3–4 days after transfection into 6-well dishes at 1.5 ∗ 10^5 cells per well and treated with 100 ng/ml doxorubicin +/− HDAC6/10 and lysosomal inhibitors for the last 24 h. After doxorubicin treatment, BE(2)-C, SK-N-AS, IMR-32 and HAP1 cells were washed with ice-cold RPMI w/o phenol-red and detached using Trypsin/EDTA for 3 minutes at 37 °C. Cells were centrifuged, resuspended in RPMI w/o phenol red and doxorubicin fluorescence was quantified on a BD FACSCanto II platform using the PE filter setting.

BE(2)-C cells [2] = assay: Flow cytometric analysis of LysoTracker DND-99 staining (lysosomal accumulation); details: 24 h
Procedure: Six days after siRNA transfection or 24 h after treatment with HDAC or lysosomal inhibitors, cells were stained for 1 h with 50 nM LysoTracker® Red DND-99 in medium under standard cell culture conditions. Cells were washed with ice-cold RPMI w/o phenol-red and detached using Trypsin/EDTA for 3 minutes at 37 °C. Cells were centrifuged, resuspended in RPMI w/o phenol red and LysoTracker® Red fluorescence was quantified on a BD FACSCanto II platform using the PE filter setting.

BE(2)-C cells [3] = assay: Flow cytometric quantification of intracellular doxorubicin accumulation, BE(2)-C
Procedure: as §1

BE(2)-C cells [4] = assay: Colony formation assay; details: treated for 24 h, 11 more days growth
Procedure: RNA isolation and real-time RT-PCR
RNA was isolated from neuroblastoma cell lines using the RNeasy MiniKit (Qiagen) according to
manufacturer's instructions. Real-time RT-PCR was performed as described in1. Data were normalized
to neuroblastoma housekeeping genes SDHA and […] and depicted as fold change relative to
negative control. The following primer pairs were used: HPRT (hypoxanthine
phosphoribosyltransferase 1, forward: 5′-[…]-3′ reverse: 5′-
-3′, ABCB1 (P-GP), forward: 5'-[…]-
3', reverse: 5'-[…]-3' , SDHA (succinate dehydrogenase complex,
subunit A, forward: 5′-[…]-3′, reverse: 5′-
BE(2)-C cells were seeded on 6-well plates at a density of 800 cells per well and treated as indicated
for 24 hours. After 24 hours, drugs were washed out and cells were allowed to grow for 11 more days
before staining of viable cell colonies with crystal violet (1 % crystal violet (w/v) in 70% ethanol). For
quantification, the plates were scanned, and colonies were counted in […] binary pictures with the
ITCN plugin for ImageJ software (U. S. National Institutes of Health, Bethesda, MD,
USA; http://imagej.nih.gov/ij/).

BE(2)-C cells [5] = assay: Flow cytometric analysis of cell surface LAMP-1 (lysosomal exocytosis); details: 6 h tubastatin A 7.5 µM, bufexamac 30 µM, tubacin 7.5 µM, vacuolin-1 10 µM 1 h
Procedure: Cells were dissociated from dishes using non-enzymatic cell dissociation reagent for five minutes. Cells were counted using a ViCell XR automatic cell counter (Beckmann Coulter) and 2.5 ∗ 10^5 cells were transferred into a pre-cooled 96-well round bottom plate (TPP92097). Cells were stained for 1.5–2 hours on ice with primary anti P-gp (Biozol ABA-AB00143-1.1), LAMP-1 (H4A3, DHSB) antibody or isotype control (DLN-05794, Dianova, […]) and for 1 hour with APC-labeled secondary antibody (Dianova 115-136-068). Cells were washed three times in FACS buffer (5% FBS in PBS) after each antibody incubation step. For evaluation of DNA double-strand breaks, cells were detached from dishes using trypsin, counted using a ViCell XR automatic cell counter (Beckmann Coulter) and transferred into a pre-cooled 96-well round bottom plate (4 ∗ 10^6 cells/well). Cells were fixed and permeabilized using the eBioscience^TM Foxp3/Transcription Factor Staining Buffer Set (Thermo Fisher Scientific). Cells were stained for 1.5 h with Phospho-Histone H2A.X (S139) primary antibody (CST #9718) and for 1 h in Alexa-488-labeled secondary antibody (ThermoFisher A-11008). Cells were washed three times in 1× permeabilization buffer after each antibody incubation step and fluorescence was quantified on a BD FACSCanto II platform.

SK-N-AS cells = assay: Flow cytometric quantification of intracellular doxorubicin accumulation, SK-N-AS; details: 100 ng/ml doxorubicin +/− 7.5 µM tubastatin A, 48 h
Procedure: as §1

What does the source list for `CN1CCc2c(c3ccccc3n2Cc2ccc(C(=O)NO)cc2)C1` [tubastatin A]?
HDAC6 inhibition (tubulin K40 acetylation) (HDAC6): substantially inhibited HDAC6; retention of intracellular doxorubicin 3 h and 6 h after doxorubicin removal (BE(2)-C cells [1]): retained higher levels of intracellular doxorubicin; lysosomal accumulation (LysoTracker staining) (BE(2)-C cells [2]; bufexamac 30 µM, tubastatin A 7.5 µM, tubacin 7.5 µM, VPA 1 mM, vacuolin-1 10 µM): caused lysosomal accumulation; lysosomal accumulation on combination with vacuolin-1 compared to vacuolin-1 alone (BE(2)-C cells [2]; tubastatin A 7.5 µM + vacuolin-1 10 µM): no additional lysosomal accumulation; intracellular doxorubicin after co-treatment (BE(2)-C cells [3]; 100 ng/ml doxorubicin, 48 h, bufexamac 30 µM, tubastatin A 7.5 µM, tubacin 7.5 µM): increased intracellular doxorubicin; intracellular doxorubicin levels, short-term (BE(2)-C cells [3]; 12 h pre-treatment with inhibitor, then 1 µg/ml doxorubicin for 3 h): increased intracellular doxorubicin levels; growth of BE(2)-C cells in colony assays, combination with doxorubicin (BE(2)-C cells [4]): effectively reduce growth; cell surface LAMP-1 levels (BE(2)-C cells [5]): reduced surface LAMP-1 levels; doxorubicin accumulation, SK-N-AS (SK-N-AS cells): increased accumulation of doxorubicin
